Where two headings read alike, the source gives them in different places.
Columns and labels:
murine splenocyte = murine splenocyte assay for immunosuppressive activity; assay type: cell-based; conditions: mouse splenocyte assay, methods of Example 2.5, read-out: Splenocyte IC50
Description: 3. Conventional murine splenocyte assay for immunosuppressive activity.
(§1) A diverse group of C7-modified 28-epirapalogs were prepared as described in Example 4.

FKBP = FKBP (Homo sapiens, UniProt P62942); assay: FKBP competitive binding assay based on fluorescence polarization (FP); conditions: competitive FP binding, methods of Example 2.5
Chain of FKBP (P62942 whole entry): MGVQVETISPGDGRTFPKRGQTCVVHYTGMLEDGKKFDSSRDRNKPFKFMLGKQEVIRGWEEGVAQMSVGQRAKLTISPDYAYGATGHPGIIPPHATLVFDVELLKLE
Description: A Competitive Binding FP Assay is described in detail in WO99/36553 and WO96/41865. That assay permits the in vitro measurement of an IC50 value for a given compound which reflects its ability to bind to an FKBP-protein in competition with a labeled FKBP ligand, such as, for example, FK506.
as §1

[1] = target: T1, transcriptional switch components containing FKBP and 2098L mutant FRB domains (Homo sapiens, UniProt P42345+P62942); assay: transcription assay in engineered HD1080 cells expressing SEAP (txn 2098L); assay type: cell-based
T1 construct: transcriptional switchcomponents containing FKBP and 2098L mutant FRB domains, respectively; fused on or other part: The two switch components are separate chimeric proteins; Neither is given for this cell line
T1 sequence (P62942 2-108 limits assumed, stated change not applied, other chains not shown): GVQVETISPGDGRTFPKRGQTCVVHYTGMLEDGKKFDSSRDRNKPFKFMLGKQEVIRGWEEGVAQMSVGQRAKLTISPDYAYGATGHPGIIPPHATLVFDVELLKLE
Text: The ability of the rapalogs to multimerize chimeric proteins may be measured in cell-based assays by measuring the occurrence of an event triggered by such multimerization. For instance, one may use cells containing and capable of expressing DNA encoding a first chimeric protein comprising one or more FKBP-domains and one or more effector domains as well as DNA encoding a second chimeric protein containing an FRB domain and one or more effector domains capable, upon multimerization, of actuating a biological response. We prefer to use cells which further contain a reporter gene under the transcriptional control of a regulatory element (i.e., promoter) which is responsive to the multimerization of the chimeric proteins. The design and preparation of illustrative components and their use in so engineered cells is described in WO99/36553 and WO96/41865 and the other international patent applications referred to in this and the foregoing section. (See also W099/10510 for additional guidance on the design, assembly and delivery of nucleic acids to render cells and animals responsive to rapalogs of interest and for additional guidance on applications of such systems.) The cells are grown or maintained in culture. A rapalog is added to the culture medium and after a suitable incubation period (to permit gene expression and secretion, e.g. several hours or overnight) the presence of the reporter gene product is measured. Positive results, i.e., multimerization, correlates with transcription of the reporter gene as observed by the appearance of the reporter gene product. The reporter gene product may be a conveniently detectable protein (e.g. by ELISA) or may catalyze the production of a conveniently detectable product (e.g. colored). Materials and methods for producing appropriate cell lines for conducting such assays are disclosed in the international patent applications cited above in this section.
2. EC50 values of the various compounds was measured in a transcription assay using genetically engineered HD1080 cells which constitutively express transcriptional switch components containing FKBP and 2098L mutant FRB domains, respectively and which regulatably express secreted alkaline phosphatase (SEAP) in the presence of a compound which multimerizes the switch components. The assay is a literature assay. See WO 99/36553, e.g. Example 12, pages 120–121 (& FIG. 2D) […]

[2] = cellular transcription assay, methods of Example 2.5; read-out: TXN 2098L EC50
[3] = read-out: TXN 2098L EC50; cellular transcription assay, methods of Example 2.5

COc1ccc([C@H]2C[C@@H]3CC[C@@H](C)[C@@](O)(O3)C(=O)C(=O)N3CCCC[C@H]3C(=O)O[C@H]([C@H](C)C[C@@H]3CC[C@@H](O)[C@H](OC)C3)CC(=O)[C@H](C)/C=C(\C)[C@H](O)[C@@H](OC)C(=O)[C@H](C)C[C@H](C)/C=C/C=C/C=C/2C)c(OC)c1 [28-epi-7S-dimethoxyphenyl]
IC50 (murine splenocyte; Mus musculus, Splenocyte): 598 to 1060 nM
IC50 (FKBP; read-out: FKBP IC50): 31 nM
EC50 [1, 2]: 50 nM

CO[C@@H]1C[C@H](C[C@@H](C)[C@@H]2CC(=O)[C@H](C)/C=C(\C)[C@H](O)[C@@H](OC)C(=O)[C@H](C)C[C@H](C)/C=C/C=C/C=C(\C)[C@@H](NC(=O)OCc3ccccc3)C[C@@H]3CC[C@@H](C)[C@@](O)(O3)C(=O)C(=O)N3CCCC[C@H]3C(=O)O2)CC[C@H]1O [28-epi-7S-benzylcarbamate]
IC50 (murine splenocyte; Mus musculus, Splenocyte): 3450 nM
IC50 (FKBP; read-out: FKBP IC50): 40 nM
EC50 [1, 2]: 15 nM

28-epi-7S-(3′-methyl)-but-4′-enyloxy
IC50 (murine splenocyte): 718 nM
IC50 (FKBP; read-out: FKBP IC50): 27 nM
EC50 [1, 2]: 16 nM

COC1CC(CC(C)C2CC(=O)C(C)C=C(C)C(O)C(OC)C(=O)C(C)CC(C)C=CC=CC=C(C)C(NC(=O)Oc3ccccc3)CC3CCC(C)C(O)(O3)C(=O)C(=O)N3CCCCC3C(=O)O2)CCC1O (stereo not drawn) [28-epi-7S-phenylcarbamate]
IC50 (murine splenocyte): > 5000 nM
IC50 (FKBP; read-out: FKBP IC50): 18 nM
EC50 [1, 2]: 14 nM
TXN 2098L peak relative to rapamycin peak ([1]; superscript mark on EC50 cell): (+) (peak was >125% rapamycin peak)

CO[C@@H]1C[C@H](C[C@@H](C)[C@@H]2CC(=O)[C@H](C)/C=C(\C)[C@H](O)[C@@H](OC)C(=O)[C@H](C)C[C@H](C)/C=C/C=C/C=C(\C)[C@@H](NS(C)(=O)=O)C[C@@H]3CC[C@@H](C)[C@@](O)(O3)C(=O)C(=O)N3CCCC[C@H]3C(=O)O2)CC[C@H]1O [28-epi-7S-methanesulfonamide]
IC50 (murine splenocyte; Mus musculus, Splenocyte): 7 nM
IC50 (FKBP; read-out: FKBP IC50): 16 nM
EC50 [1, 2]: 24 nM

CO[C@@H]1C[C@H](C[C@@H](C)[C@@H]2CC(=O)[C@H](C)/C=C(\C)[C@H](O)[C@@H](OC)C(=O)[C@H](C)C[C@H](C)/C=C/C=C/C=C(\C)[C@H](Oc3ccccc3)C[C@@H]3CC[C@@H](C)[C@@](O)(O3)C(=O)C(=O)N3CCCC[C@H]3C(=O)O2)CC[C@H]1O [28-epi-7R-phenyloxy]
IC50 (murine splenocyte; Mus musculus, Splenocyte): 200 to 1950 nM
IC50 (FKBP; read-out: FKBP IC50): 19 nM
EC50 [1, 2]: 9 nM
TXN 2098L peak relative to rapamycin peak ([1]; superscript mark on EC50 cell): (−) (peak was <80% rapamycin peak)

CO[C@@H]1C[C@H](C[C@@H](C)[C@@H]2CC(=O)[C@H](C)/C=C(\C)[C@H](O)[C@@H](OC)C(=O)[C@H](C)C[C@H](C)/C=C/C=C/C=C(\C)[C@H](N(C)S(C)(=O)=O)C[C@@H]3CC[C@@H](C)[C@@](O)(O3)C(=O)C(=O)N3CCCC[C@H]3C(=O)O2)CC[C@H]1O [28-epi-7R-N-Me-methanesulfonamide]
IC50 (murine splenocyte; Mus musculus, Splenocyte): 166 nM
IC50 (FKBP; read-out: FKBP IC50): 37 nM
EC50 [1, 2]: 8 nM

CO[C@@H]1C[C@H](C[C@@H](C)[C@@H]2CC(=O)[C@H](C)/C=C(\C)[C@H](O)[C@@H](OC)C(=O)[C@H](C)C[C@H](C)/C=C/C=C/C=C(\C)[C@H](NS(=O)(=O)N(C)c3ccccc3)C[C@@H]3CC[C@@H](C)[C@@](O)(O3)C(=O)C(=O)N3CCCC[C@H]3C(=O)O2)CC[C@H]1O [28-epi-7R-methylphenylsulfamide]
IC50 (murine splenocyte): 22 nM
IC50 (FKBP; read-out: FKBP IC50): 38 nM
EC50 [1, 2]: 27 nM

C=CCO[C@H]1C[C@@H]2CC[C@@H](C)[C@@](O)(O2)C(=O)C(=O)N2CCCC[C@H]2C(=O)O[C@H]([C@H](C)C[C@@H]2CC[C@@H](O)[C@H](OC)C2)CC(=O)[C@H](C)/C=C(\C)[C@H](O)[C@@H](OC)C(=O)[C@H](C)C[C@H](C)/C=C/C=C/C=C/1C [28-epi-7S-allyloxy]
IC50 (murine splenocyte; Mus musculus, Splenocyte): 1800 nM
IC50 (FKBP; FKBP IC50 (nM)): 18 nM
EC50 [1, 3]: 8 nM

CO[C@@H]1C[C@H](C[C@@H](C)[C@@H]2CC(=O)[C@H](C)/C=C(\C)[C@H](O)[C@@H](OC)C(=O)[C@H](C)C[C@H](C)/C=C/C=C/C=C(\C)[C@@H](N(C)S(C)(=O)=O)C[C@@H]3CC[C@@H](C)[C@@](O)(O3)C(=O)C(=O)N3CCCC[C@H]3C(=O)O2)CC[C@H]1O [28-epi-7S-N-Me-methanesulfonamide]
IC50 (murine splenocyte; Mus musculus, Splenocyte): 140 nM
IC50 (FKBP; read-out: FKBP IC50): 21 nM
EC50 [1, 2]: 27 nM
TXN 2098L peak relative to rapamycin peak ([1]; superscript mark on EC50 cell): (+) (peak was >125% rapamycin peak)

CCOC(=O)N[C@@H]1C[C@@H]2CC[C@@H](C)[C@@](O)(O2)C(=O)C(=O)N2CCCC[C@H]2C(=O)O[C@H]([C@H](C)C[C@@H]2CC[C@@H](O)[C@H](OC)C2)CC(=O)[C@H](C)/C=C(\C)[C@H](O)[C@@H](OC)C(=O)[C@H](C)C[C@H](C)/C=C/C=C/C=C/1C [28-epi-7R-ethylcarbamate]
IC50 (murine splenocyte; Mus musculus, Splenocyte): > 5000 nM
IC50 (FKBP; FKBP IC50 (nM)): 7.5 nM
EC50 [1, 3]: 9 nM
TXN 2098L peak relative to rapamycin peak ([1]; superscript mark on EC50 cell): (+) (peak was >125% rapamycin peak)

CO[C@@H]1C[C@H](C[C@@H](C)[C@@H]2CC(=O)[C@H](C)/C=C(\C)[C@H](O)[C@@H](OC)C(=O)[C@H](C)C[C@H](C)/C=C/C=C/C=C(\C)[C@@H](N(C)C(=O)OCc3ccccc3)C[C@@H]3CC[C@@H](C)[C@@](O)(O3)C(=O)C(=O)N3CCCC[C@H]3C(=O)O2)CC[C@H]1O [28-epi-7S-N-Me-benzylcarbamate]
IC50 (murine splenocyte): 158 nM
IC50 (FKBP; read-out: FKBP IC50): 40 nM
EC50 [1, 2]: 9 nM

CO[C@@H]1C[C@H](C[C@@H](C)[C@@H]2CC(=O)[C@H](C)/C=C(\C)[C@H](O)[C@@H](OC)C(=O)[C@H](C)C[C@H](C)/C=C/C=C/C=C(\C)[C@@H](NS(=O)(=O)N(C)c3ccccc3)C[C@@H]3CC[C@@H](C)[C@@](O)(O3)C(=O)C(=O)N3CCCC[C@H]3C(=O)O2)CC[C@H]1O [28-epi-7S-methylphenylsulfamide]
IC50 (murine splenocyte): 564 nM
IC50 (FKBP; read-out: FKBP IC50): 11 nM
EC50 [1, 2]: 28 nM

CCCS(=O)(=O)N(C)C1CC2CCC(C)C(O)(O2)C(=O)C(=O)N2CCCCC2C(=O)OC(C(C)CC2CCC(O)C(OC)C2)CC(=O)C(C)C=C(C)C(O)C(OC)C(=O)C(C)CC(C)C=CC=CC=C1C (single isomer, unassigned) [28-epi-7R-N-Me-propanesulfonamide]
IC50 (murine splenocyte): 1370 nM
IC50 (FKBP; read-out: FKBP IC50): 148 nM
EC50 [1, 2]: 9 nM

CO[C@@H]1C[C@H](C[C@@H](C)[C@@H]2CC(=O)[C@H](C)/C=C(\C)[C@H](O)[C@@H](OC)C(=O)[C@H](C)C[C@H](C)/C=C/C=C/C=C(\C)[C@H](NS(C)(=O)=O)C[C@@H]3CC[C@@H](C)[C@@](O)(O3)C(=O)C(=O)N3CCCC[C@H]3C(=O)O2)CC[C@H]1O [28-epi-7R-methanesulfonamide]
IC50 (murine splenocyte; Mus musculus, Splenocyte): 91 nM
IC50 (FKBP; read-out: FKBP IC50): 7.2 nM
EC50 [1, 2]: 24 nM

CCCCS(=O)(=O)N[C@@H]1C[C@@H]2CC[C@@H](C)[C@@](O)(O2)C(=O)C(=O)N2CCCC[C@H]2C(=O)O[C@H]([C@H](C)C[C@@H]2CC[C@@H](O)[C@H](OC)C2)CC(=O)[C@H](C)/C=C(\C)[C@H](O)[C@@H](OC)C(=O)[C@H](C)C[C@H](C)/C=C/C=C/C=C/1C [28-epi-7R-butanesulfonamide]
IC50 (murine splenocyte; Mus musculus, Splenocyte): 0.16 nM
IC50 (FKBP; read-out: FKBP IC50): 11 nM
EC50 [1, 2]: 20 nM

C=CCO[C@@H]1C[C@@H]2CC[C@@H](C)[C@@](O)(O2)C(=O)C(=O)N2CCCC[C@H]2C(=O)O[C@H]([C@H](C)C[C@@H]2CC[C@@H](O)[C@H](OC)C2)CC(=O)[C@H](C)/C=C(\C)[C@H](O)[C@@H](OC)C(=O)[C@H](C)C[C@H](C)/C=C/C=C/C=C/1C [28-epi-7R-allyloxy]
IC50 (murine splenocyte; Mus musculus, Splenocyte): 3400 nM
IC50 (FKBP; FKBP IC50 (nM)): 11 nM
EC50 [1, 3]: 25 nM

Reference: patent US7196192B2, “28-epirapalogs” (Ariad Gene Therapeutics, Inc., priority 1999, dated 2007)
